Assay results from patent publication US20240166658A1, “PORPHYRIN DERIVATIVES AND USES THEREOF” (University of Tasmania, priority 2021, published 2024).

How the values were obtained:
[1] = PFCA guest response screening (RGB analysis, UV-Vis)
Experimental: A Puluz® 20 cm portable light tent with moderate and dispersed white LED lighting was used to photograph samples using an iPhone 6S plus camera on a fixed tripod. The automatic flash settings were disabled so there was no reflective interference on the sample vials. Samples that were being directly compared were photographed together to ensure lighting conditions and settings were consistent. The photographs were analysed using ImageJ software according to the procedure of Gallagher, 2014b. Multiple RGB values were chosen from areas of each sample at random to provide an “average” RGB value (Menesatti et al., 2012; Gallagher, 2014a; Phuangsaijai et al., 2021). Those RGB values were used to produce an artificial colour tile for visual comparison, or parameterized for modelling.
To quantify a colour difference, RGB values were transformed within the CIELab colour space. The difference, expressed as ΔE, was determined by measuring the relative distance between two colours. The numeric ΔE value can be used to predict how the two colours are perceived by a standard observer; a ΔE>2 is considered the minimum value to achieve a “just noticeable difference” (JND) (Table 1), which is the smallest difference required for an untrained observer to be able to determine two colours as being different (Castillo et al., 2021).
Experiments were performed at concentrations that could be monitored by the naked eye for practical sensing of PFAS in the field. Complexes of hosts (9), (11) and (12) were formed with the nine different perfluorocarboxylic acids (PFCAs) shown in Table 2 above and the colours of each host−PFCA complex were photographed in a lightbox and analysed using ImageJ software RGB analysis. Pixels of the solution were chosen at random to provide an RGB value. Multiple RGB values were recorded for each host−PFCA solution, and an average colour can be produced. From those values an RGB parameter was used to give a response value for modelling (Tahir et al., 2016).
After preliminary screenings, UV-Vis spectra were collected before and after the addition of 1 molar equivalent of each PFCA for each host, and the degree of complexation was noted by shifts in the Soret bands and formation of a peak at ca. 650 nm. To eliminate dilution effects, PFCA guest solutions were prepared in the equivalent concentration of host. If there was a notable host−guest interaction for a particular PFCA, the host−guest binding was investigated with more rigorous UV-Vis experiments, binding studies, and further colour analyses. Throughout these investigations, PFOA was considered the “average” PFCA both because of its position in the range of PFCA sizes and because its prevalence is often an indication of broader PFAS contamination. In any experiment where binding was further investigated for a particular PFCA, it was typically replicated with PFOA for comparison.

[2] = Colorimetric calibration chart, RGB response to known PFOA concentrations; details: PFOA 0.7 ppm, dichloromethane
Experimental: The host molecules were combined with known concentrations of PFOA to provide RGB colour responses, which were used to create a colorimetric calibration chart that could be trialled as an indicator for estimating the total concentration of a range of any PFCAs. Solutions of each host molecule (1.00×10^−5 M) were prepared in dichloromethane. Solutions of PFOA in dichloromethane were prepared across a range of concentrations (0→16 ppm, 4.00×10^−5 M). Each host (2 mL) was combined with each PFOA concentration (1 mL, final concentration 0→1.33×10^−5 M) and photographed under equivalent lighting conditions. The average colour of each solution was then found using ImageJ RGB analysis, and a colour chart was produced.
For this reason, parametrization of the RGB values can be useful for interpreting results. The RGB response parameter can be calculated using the RGB values of the “blank” host solution (Šafranko et al., 2019) and the effective intensities of the individual RGB values of a sample (Tahir et al., 2016):
Here, H, indicates the values for the host solution, and S, indicates the response for a sample containing a PFCA, so that ΔR, ΔG, and ΔB give the colour differences. The RGB parameter is the response due to the relative difference in the RGB intensities:
The RGB values collected for each host with a range of known concentrations of PFOA in dichloromethane were parameterized and used to determine a relationship between concentration of analyte and RGB response values. […] The relationship between RGB response values and concentrations of PFOA could now be tested for accuracy in determining the concentration of any PFCA.

[3] = UV-Vis host-guest titration, association constant; type: binding
Experimental: Path length of the quartz cell was 1 cm. For UV-vis titrations, a stock solution of host was prepared (2.2×10^−3 M) in dichloromethane (DCM) and serially diluted to the required concentrations. Working solutions of tetrabutylammonium (TBA) anion salts or guest molecules were prepared in the same manner Host−guest titrations used solutions of guest prepared in the working concentration of host solution, according to the procedure of Thordarson, 2011.
UV-vis spectroscopic host−guest titrations were performed in accordance with the methodologies of Thordarson, 2011. Solutions of host in dichloromethane were prepared. Solutions of guest were then prepared in the host solution. Aliquots of guest in host solution were added to host solution and sequentially analysed until a known molar equivalent of guest was added. The amount of guest added per aliquot was ascertained by a preliminary screening experiment; strong association constants required smaller molar equivalents so more information could be collected. […] The inverse is true for weaker binding interactions. Molar equivalents between 0.1-5 typically provided adequate information for modelling. The data was then used to simulate binding isotherms using www.supramolecular.org (Hibbert and Thordarson, 2016). The data was fitted to 1:1, 1:2 and 2:1 equilibria making no assumptions about the cooperativity of the binding interactions and modelled using different algorithms. These experiments mainly used the Nelder-Mead (Simplex) method.
UV-Vis spectroscopy binding studies were used to determine the association constant for the host (9)−PFOA complex.
A host solution of host (9) in dichloromethane was monitored using UV-Vis analysis as 0.5-10 equivalents of each PFAS was added. […] The data was processed using Bindfit isotherm simulators using both Nelder-Mead and L-BFGS-B methods (Thordarson, 2011).
To highlight any potential binding preferences across the PFCAs from the host molecules, triplicates of host−guest addition titrations were performed using host (9) and the TBA salts of the nine different deprotonated PFCAs.

[4] = host + one equivalent PFBA in dichloromethane
[5] = host + one equivalent PFDA in dichloromethane
[6] = host + one equivalent PFDoDA in dichloromethane
[7] = host + one equivalent PFHpA in dichloromethane
[8] = host + one equivalent PFHxA in dichloromethane
[9] = host + one equivalent PFNA in dichloromethane
[10] = host + one equivalent PFOA in dichloromethane
[11] = host + one equivalent PFPeA in dichloromethane
[12] = host + one equivalent PFUnDA in dichloromethane
[13] = short, medium and long chain sensor molecules with PFOA

Row | Compound | Absorbance @ 650 nm [1, 4] | Absorbance @ 650 nm [1, 5] | Absorbance @ 650 nm [1, 6] | Absorbance @ 650 nm [1, 7] | Absorbance @ 650 nm [1, 8] | Absorbance @ 650 nm [1, 9] | Absorbance @ 650 nm [1, 10] | Absorbance @ 650 nm [1, 11] | Absorbance @ 650 nm [1, 12] | ΔEHost-PFCA ([1]; host vs host + PFBA) | ΔEHost-PFCA ([1]; host vs host + PFDA) | ΔEHost-PFCA ([1]; host vs host + PFDoDA) | ΔEHost-PFCA ([1]; host vs host + PFHpA) | ΔEHost-PFCA ([1]; host vs host + PFHxA) | ΔEHost-PFCA ([1]; host vs host + PFNA) | ΔEHost-PFCA ([1]; host vs host + PFOA) | ΔEHost-PFCA ([1]; host vs host + PFPeA) | ΔEHost-PFCA ([1]; host vs host + PFUnDA) | ΔE between host and lowest PFOA concentration [2] | K [3, 13] [M⁻¹] | other results
1 | O=C(Nc1ccccc1-c1c2nc(c(-c3ccccc3NC(=O)C(F)(F)C(F)(F)C(F)(F)C(F)(F)C(F)(F)C(F)(F)C(F)(F)F)c3ccc([nH]3)c(-c3ccccc3NC(=O)C(F)(F)C(F)(F)C(F)(F)C(F)(F)C(F)(F)C(F)(F)C(F)(F)F)c3nc(c(-c4ccccc4NC(=O)C(F)(F)C(F)(F)C(F)(F)C(F)(F)C(F)(F)C(F)(F)C(F)(F)F)c4ccc1[nH]4)C=C3)C=C2)C(F)(F)C(F)(F)C(F)(F)C(F)(F)C(F)(F)C(F)(F)C(F)(F)F [host (9), α,α,α,α-5,10,15,20-tetrakis(2-(pentadecafluorooctanoylamino)phenyl)porphyrin] | 0.04939 | 0.03023 | 0.01719 | 0.04879 | 0.04964 | 0.02986 | 0.02885 | 0.04302 | 0.02958 | 46.1 | 39.6 | 22.4 | 47.2 | 47.3 | 38.5 | 39.3 | 46.2 | 38.5 | 11 | 1.77e+06 | association constant (Ka) ([3]; host 1.01×10^−6 M in dichloromethane, TBAPFO aliquots, 1:1, Nelder-Mead and L-BFGS-B): ~2.8e+06 M⁻¹; K value (averaged association constant Ka) ([3]; host (9) in dichloromethane, triplicate, TBA salt and acid, Bindfit): 109574
2 | O=C(Nc1ccccc1-c1c2nc(c(-c3ccccc3NC(=O)C(F)(F)C(F)(F)C(F)(F)C(F)(F)C(F)(F)C(F)(F)C(F)(F)C(F)(F)C(F)(F)C(F)(F)C(F)(F)F)c3ccc([nH]3)c(-c3ccccc3NC(=O)C(F)(F)C(F)(F)C(F)(F)C(F)(F)C(F)(F)C(F)(F)C(F)(F)C(F)(F)C(F)(F)C(F)(F)C(F)(F)F)c3nc(c(-c4ccccc4NC(=O)C(F)(F)C(F)(F)C(F)(F)C(F)(F)C(F)(F)C(F)(F)C(F)(F)C(F)(F)C(F)(F)C(F)(F)C(F)(F)F)c4ccc1[nH]4)C=C3)C=C2)C(F)(F)C(F)(F)C(F)(F)C(F)(F)C(F)(F)C(F)(F)C(F)(F)C(F)(F)C(F)(F)C(F)(F)C(F)(F)F [host (12), α,α,α,α-5,10,15,20-tetrakis(2-(tricosafluorododecanoylamino)phenyl) porphyrin] | 0.0906 | 0.0918 | 0.0769 | 0.0737 | 0.0728 | 0.0953 | 0.0913 | 0.0692 | 0.0808 | 21.1 | 22.3 | 17.9 | 16.3 | 17.5 | 22.3 | 21.8 | 9.8 | 18.8 | 24 | 1.67e+06 | K ([3]; 1 Host:1 Guest binding mode): 1.58 × 10^5; K11 ([3]; 1 Host:2 Guest binding mode): 1.49 × 10^7; K12 ([3]; 1 Host:2 Guest binding mode): 1.17 × 10^2
